According to ChEMBL document CHEMBL1145164, “2-Acetylamino-3-[4-(2-acetylamino-2-carboxyethylsulfanylcarbonylamino)- phenylcarbamoylsulfanyl]propionic acid and its derivatives as a novel class of glutathione reductase inhibitors” (J Med Chem, 2005):

Key:
Glutathione reductase [1] = target: T1, Glutathione reductase (Saccharomyces cerevisiae S288c, UniProt P41921); experiment: Inhibition of yeast glutathione reductase over 30 minutes pH 7.4 at 25 degree C
T1 sequence (P41921 whole entry): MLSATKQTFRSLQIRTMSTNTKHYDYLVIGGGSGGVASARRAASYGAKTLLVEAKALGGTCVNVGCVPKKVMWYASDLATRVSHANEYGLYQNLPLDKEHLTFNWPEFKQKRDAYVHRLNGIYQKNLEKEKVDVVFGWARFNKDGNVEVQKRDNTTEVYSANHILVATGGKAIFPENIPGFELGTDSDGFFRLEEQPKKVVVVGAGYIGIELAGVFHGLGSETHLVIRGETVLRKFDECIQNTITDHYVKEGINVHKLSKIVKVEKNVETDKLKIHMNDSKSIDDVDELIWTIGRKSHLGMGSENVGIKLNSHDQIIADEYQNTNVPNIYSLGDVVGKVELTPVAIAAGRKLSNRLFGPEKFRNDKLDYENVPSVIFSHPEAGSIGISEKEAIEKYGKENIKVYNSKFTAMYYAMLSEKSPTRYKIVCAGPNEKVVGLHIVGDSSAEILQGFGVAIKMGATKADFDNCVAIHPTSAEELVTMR

[2] = target: T2, Glutathione S-transferase A1 (Homo sapiens) (UniProt P08263); experiment: Inhibitory activity of compound against glutathione S-transferase; settings: concentration not given here
T2 sequence (whole entry): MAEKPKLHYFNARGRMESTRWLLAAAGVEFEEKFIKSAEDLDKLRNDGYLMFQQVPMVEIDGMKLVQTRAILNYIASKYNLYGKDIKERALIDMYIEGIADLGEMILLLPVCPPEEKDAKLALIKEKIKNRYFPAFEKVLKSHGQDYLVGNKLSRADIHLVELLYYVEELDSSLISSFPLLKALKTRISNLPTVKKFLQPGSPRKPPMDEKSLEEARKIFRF

Glutathione reductase [3] = target: T1, Glutathione reductase; experiment: Inhibition of yeast glutathione reductase done for 30 minutes in pH 7.4 at 25 degree C with compound (0.2 mM)
Glutathione reductase [4] = target: T1, Glutathione reductase; experiment: Inhibition of yeast glutathione reductase for 30 minutes pH 7.4 at 25 degree C at 0.2 mM
[5] = target: T3, Glutathione reductase (Saccharomyces cerevisiae S288c) (UniProt P41921)
T3 sequence (whole entry): T1 sequence (P41921 whole entry)
Description: Kinact value for yeast glutathione reductase

IC50 (Glutathione reductase [1]) [µM]	Compound	other results
85	CC(=O)NC(CSC(=O)Nc1ccc(Cc2ccc(NC(=O)SCC(NC(C)=O)C(=O)O)cc2)cc1)C(=O)O (stereo unspecified)	
117	CC(=O)NC(CSC(=O)NCc1ccc(NC(=O)SCC(NC(C)=O)C(=O)O)cc1)C(=O)O (stereo unspecified)	
515	CC(=O)NC(CSC(=O)NCCCCNC(=O)SCC(NC(C)=O)C(=O)O)C(=O)O (stereo unspecified)	
477	CC(=O)NC(CSC(=O)NC1CCC(CC2CCC(NC(=O)SCC(NC(C)=O)C(=O)O)CC2)CC1)C(=O)O (stereo unspecified)	
149	CC(=O)NC(CSC(=O)Nc1cccc(NC(=O)SCC(NC(C)=O)C(=O)O)c1)C(=O)O (stereo unspecified)	
455	CC(=O)NC(CSC(=O)NCCCCCCNC(=O)SCC(NC(C)=O)C(=O)O)C(=O)O (stereo unspecified)	
	CC(=O)NC(CSC(=O)Nc1ccc(NC(=O)SCC(NC(C)=O)C(=O)O)cc1)C(=O)O (stereo unspecified)	inhibition [2]: 13%; IC50 (Glutathione reductase [3]): 50 µM; Ki (Glutathione reductase [4]): 88 µM; Kinact [5]: 0.1 min⁻¹

Compound	IC50 (Glutathione reductase [1]) [µM]	other results
O=NN(CCCl)C(=O)NCCCl [CARMUSTINE]	441	
